# Assay results published in patent US10183082B2, “PET probes of radiofluorinated carboximidamides for IDO-targeted imaging” (H. LEE MOFFITT CANCER CENTER AND RESEARCH INSTITUTE, INC., priority 2014, dated 2019).
# Columns and labels:
# IDO = IDO (Homo sapiens, UniProt P14902); assay: Inhibition of IFN-γ induced IDO activity in Hela cells; type: cell-based; settings: Hela cell lines (FIGS. 7A, 7B)
# tumor IDO expression = molecular target: T1, tumor IDO expression (Mus musculus, UniProt P28776); assay: microPET/CT imaging of CLL mouse model versus wild-type mouse; type: in vivo; settings: imaged 1 hour after i.p. injection of the probe; CLL tumor mice vs wild-type mice
# T1 construct: from tissue; host or cells: living CLL tumor mice (whole-animal microPET/CT)
# T1 sequence (P28776 whole entry): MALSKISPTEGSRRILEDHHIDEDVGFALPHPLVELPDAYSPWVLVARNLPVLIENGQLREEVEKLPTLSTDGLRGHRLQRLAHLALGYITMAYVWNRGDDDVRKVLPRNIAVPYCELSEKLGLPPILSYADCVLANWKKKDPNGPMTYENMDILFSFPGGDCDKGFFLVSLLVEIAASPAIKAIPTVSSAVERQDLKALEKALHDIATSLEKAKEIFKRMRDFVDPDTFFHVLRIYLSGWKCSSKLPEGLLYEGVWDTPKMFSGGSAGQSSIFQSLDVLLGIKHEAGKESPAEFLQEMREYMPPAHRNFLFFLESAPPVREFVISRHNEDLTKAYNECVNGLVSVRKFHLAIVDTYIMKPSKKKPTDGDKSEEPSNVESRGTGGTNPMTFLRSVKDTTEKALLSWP
# Experimental: Mice were imaged 1 hour after i.p. injection of the probe.
# HuMEC cells = assay: alamarBlue cell proliferation (cytotoxicity) assay, HuMEC; type: cell-based; settings: 100 nM, 2 days incubation
# Experimental: (§1) FIGS. 6A-6C. Cell viability study of HuMEC cells, MCA-MB-231 cells, and Hela cells, respectively, incubated with 100 nM of IDO inhibitors. After 2 days of incubation, alamarBlue cell viability reagent was added to cells and the fluorescence intensity (arbitrary fluorescent units) was measured after 3 hours incubation (n=4). Cytotoxicity of four IDO inhibitors toward different cell lines was evaluated with a cell proliferation assay using alamarBlue cell viability reagent. Hela cells were cultured in EMEM medium (ATCC 30-2003) containing 10% FBS, MDA-MB-231 and MCF-7 were cultured in RPMI-1640 Medium containing 10% FBS, while HuMEC cells were cultured in HuMEC medium (ATCC 12752-010). The cell proliferation assay included the following: harvesting of the cells by trypsinization and adding culture media to adjust to 10000 cell/mL; add 0.2 mL of cell suspension to each well and incubated at 37° C. in 5% CO2 atmosphere for 2 days; adding 1 μL of inhibitor solution (0.1 mM in DMSO) into growth media (1 mL) to get growth media w/inhibitor; aspirating spent growth medium from the wells and adding 200 μL of growth media w/ inhibitors and incubating at 37° C. in 5% CO2 atmosphere for 2 days; adding 20 μL of the alamarBlue (Invitrogen) into each well; incubating for addition 3 hours at 37° C. in 5% CO2 atmosphere; and reading the fluorescence intensity of each well with a plate reader (excitation, 544 nm; Emission 595 nm). The fluorescent signal is linear to the number of living cells.
# Hela cells = assay: alamarBlue cell proliferation (cytotoxicity) assay, Hela; type: cell-based; settings: 100 nM, 2 days incubation
# Experimental: as §1
# MCF-7 cells = assay: alamarBlue cell proliferation (cytotoxicity) assay, MCF-7; type: cell-based; settings: 100 nM, 2 days incubation
# Experimental: as §1
# MDA-MB-231 cells = assay: alamarBlue cell proliferation (cytotoxicity) assay, MDA-MB-231; type: cell-based; settings: 100 nM, 2 days incubation
# Experimental: as §1
# [1] = via oral administration; cited from earlier work
# IDO, sequence (P14902 whole entry): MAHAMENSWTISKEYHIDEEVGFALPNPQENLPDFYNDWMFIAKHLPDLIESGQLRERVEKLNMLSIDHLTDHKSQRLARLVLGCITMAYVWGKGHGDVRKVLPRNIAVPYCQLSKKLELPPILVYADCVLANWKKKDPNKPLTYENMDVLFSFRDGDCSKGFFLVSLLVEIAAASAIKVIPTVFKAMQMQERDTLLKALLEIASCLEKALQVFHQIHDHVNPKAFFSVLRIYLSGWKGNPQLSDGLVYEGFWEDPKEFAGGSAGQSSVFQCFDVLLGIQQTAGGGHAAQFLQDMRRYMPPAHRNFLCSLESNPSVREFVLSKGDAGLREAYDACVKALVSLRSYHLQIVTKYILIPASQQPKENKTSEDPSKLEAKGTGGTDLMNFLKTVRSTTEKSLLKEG
SMILES,Inhibition of IDO activity (IDO),microPET/CT detection of tumor IDO expression (tumor IDO expression),Cytotoxicity (HuMEC cells),Cytotoxicity (Hela cells),Cytotoxicity (MCF-7 cells),Cytotoxicity (MDA-MB-231 cells),t½ (clearance rate) [1] [min]
"Nc1nonc1/C(=N/O)Nc1ccc([18F])c(Cl)c1 [^18F-IDO5L, [18F] 4-amino-N-(3-chloro-4-fluorophenyl)-N′-hydroxy-1,2,5-oxadiazole-3-carboximidamide]",,distinguishes IDO-positive chronic lymphocytic leukemia (CLL) mouse model and wild-type mouse in vivo,,,,,
ON=C(Nc1ccc(F)c(Cl)c1)c1nonc1NCCF [IDO4-9],inhibited,,no cytotoxicity,no cytotoxicity,no cytotoxicity,no cytotoxicity,
"Nc1nonc1C(=NO)Nc1ccc(F)c(Cl)c1 [IDO5L, 4-Amino-N-(3-chloro-4-fluorophenyl)-N′-hydroxy-1,2,5-oxadiazole-3-carboximidamide]",inhibited,,no cytotoxicity,no cytotoxicity,no cytotoxicity,no cytotoxicity,< 30

# More lines, main results first:
Inhibition of IDO activity (IDO),SMILES,microPET/CT detection of tumor IDO expression (tumor IDO expression),Cytotoxicity (HuMEC cells),Cytotoxicity (Hela cells),Cytotoxicity (MCF-7 cells),Cytotoxicity (MDA-MB-231 cells),t½ (clearance rate) [1] [min]
inhibited,O/N=C(\Nc1ccc(F)c(Cl)c1)c1nonc1NCCO/N=C\c1ccc(F)cc1 [IDO7],,,,,,
inhibited,O=C(Cc1ccc(F)cc1)Nc1nonc1/C(=N/O)Nc1ccc(F)c(Cl)c1 [IDO5],,,,,,
inhibited,O=C(Nc1nonc1/C(=N/O)Nc1ccc(F)c(Cl)c1)c1ccc(F)cc1 [IDO6],,no cytotoxicity,no cytotoxicity,no cytotoxicity,no cytotoxicity,
